According to patent US20240360153A1 (Regeneron Pharmaceuticals, Inc., priority 2023, published 2024):

Test: Pharmacokinetic studies in male CD-1 mice (plasma, IV and PO)
Assay type: in vivo, mouse
Settings: for clearance / Vd / bioavailability / half-life / Cmax / concentration at 8 h / concentration at 24 h: male; for clearance / Vd / bioavailability: CD-1, plasma, mouse; for clearance / Vd / half-life: IV 2 mg/kg; for clearance: read-out: CI(mL/min/kg), compounds clearance following IV administration; for Vd: read-out: Vdss (L/kg), volume of distribution following IV administration; for bioavailability: PO 10 mg/kg vs IV 2 mg/kg; for half-life / Cmax / concentration at 8 h / concentration at 24 h: CD-1; for half-life / Cmax / concentration at 8 h / concentration at 24 h / IV plasma half-life (T1/2): mouse plasma; for half-life: read-out: IV T1/2 (converted); for Cmax / concentration at 8 h / concentration at 24 h: PO 10 mg/kg; for concentration at 8 h: read-out: Compound concentration at 8-hour, PO administration; for concentration at 24 h: read-out: Compound concentration at 24-hour, PO administration
Protocol: Animal experiments were carried out at Wuxi AppTec. Male 6-8 weeks old CDI mice were obtained from Hilltop Labs. Following arrival at Wuxi AppTec, mice were housed in animal rooms with environmental control (temperature: 20 to 26° C.; lighting: 12 hour light/dark cycle). Mice were fed with certified pellet diet (Certified Rodent Diet #5002 by LabDiet). Water was provided to the animals ad libitum. Mice were acclimated to the facility for at least 3 days prior to starting experiments.
Appropriate amount of test article formulated in 5% ethanol, 5% Tween-80 and 5% PEG-400, 85% water. Formulation was prepared on the day of dosing and dosed within 2 hours following preparation of formulations. Dose accuracy was determined by LC-MS/MS.
Dose formulation(s) were administered following facility SOPs. Dose volumes were determined individually prior to dosing based on animals' body weights.
About 40 μL of blood samples were collected via peripheral veins (e.g. saphenous veins) at each pre-defined time point. Blood samples were collected into tubes containing K2EDTA as anti-coagulant and kept on ice until centrifugation.
Blood samples were centrifuged at 4° C., 3000 g for 5 min within half an hour of collection. Plasma was transferred into polypropylene tubes or 96-well plates, promptly frozen on dry ice and stored at −70±10° C. until analysis by LC-MS/MS.
Test compound concentration in mouse plasma was determined with LC-MS/MS method using a calibration curve with at least 6 non-zero calibration standards.
The pharmacokinetics (PK) of the test article was analyzed using Phoenix WinNonlin software (version 8.3) and non-compartmental analysis model. Derived PK parameters include, but not limited to, C0, CLp, Vdss, Cmax, Tmax, T1/2, AUC(0-t), AUC(0-inf), MRT(0-t), MRT(0-inf) and % F (bioavailability).

clearance | Vd | bioavailability | half-life | Cmax | concentration at 8 h | concentration at 24 h | IV plasma half-life (T1/2) | Structure (SMILES)
0.934 mL/min/kg | 0.433 L/kg | 26% | 5.85 h | 7220 ng/mL | 1960 ng/mL | 273 ng/mL | 5.85 h | CO[C@H]1C[C@@H]2CC[C@@H](C)[C@@](O)(O2)C(=O)C(=O)N2CCCC[C@H]2C(=O)O[C@H]([C@H](C)C[C@@H]2CC[C@@H](OCCO)[C@H](OC)C2)CC(=O)[C@H](C)/C=C(\C)[C@@H](O)[C@@H](OC)C(=O)[C@H](C)C[C@H](C)/C=C/C=C/C=C/1C [RAD001, everolimus, reference compound]
0.176 mL/min/kg | 0.228 L/kg | 30.7% | 15.5 h | 12900 ng/mL | 10000 ng/mL | 4670 ng/mL | 15.5 h | COCCN(c1ccccc1)C1C[C@@H]2CC[C@@H](C)[C@@](O)(O2)C(=O)C(=O)N2CCCC[C@H]2C(=O)OC([C@H](C)CC2CC[C@@H](O)C(OC)C2)CC[C@H](C)/C=C(\C)C(O)C(OC)C(=O)[C@H](C)C[C@H](C)/C=C/C=C/C=C/1C (stereo partly drawn) [Compound 69, (3S,6S,7E,9R,10R,12R,14S,15E,17E,19E,23S,26R,27R,34aS)-9,27-dihydroxy-3-((R)-1-((1S,3R,4R)-4-hydroxy-3-methoxycyclohexyl)propan-2-yl)-10-methoxy-21-((2-methoxyethyl)(phenyl)amino)-6,8,12,14,20,26-hexamethyl-5,6,9,10,12,13,14,21,22,23,24,25,26,27,32,33,34,34a-octadecahydro-3H-23,27-epoxypyrido[2,1-c][1]oxa[4]azacyclohentriacontine-1,11,28,29(4H,31H)-tetraone]
